Source: US20200239530A1, “COMPOUNDS AND METHODS OF MODULATING PROTEIN DEGRADATION” (Vividion Therapeutics, Inc., priority 2017, published 2020)

How the values were obtained:
[1] = molecular target: T1, CDK18 Cyclin-dependent kinase 18 (Homo sapiens, UniProt Q07002); assay: Cysteine liganding, probe competition; assay type: binding; details: for Liganded: CDK18 Res# 183, uniprot Q07002
T1 construct: 200 μL of lysate containing 5 mg/ml proteome was treated with 2 μL of 100× compound stock; endogenous in cells
T1 sequence (Q07002 whole entry): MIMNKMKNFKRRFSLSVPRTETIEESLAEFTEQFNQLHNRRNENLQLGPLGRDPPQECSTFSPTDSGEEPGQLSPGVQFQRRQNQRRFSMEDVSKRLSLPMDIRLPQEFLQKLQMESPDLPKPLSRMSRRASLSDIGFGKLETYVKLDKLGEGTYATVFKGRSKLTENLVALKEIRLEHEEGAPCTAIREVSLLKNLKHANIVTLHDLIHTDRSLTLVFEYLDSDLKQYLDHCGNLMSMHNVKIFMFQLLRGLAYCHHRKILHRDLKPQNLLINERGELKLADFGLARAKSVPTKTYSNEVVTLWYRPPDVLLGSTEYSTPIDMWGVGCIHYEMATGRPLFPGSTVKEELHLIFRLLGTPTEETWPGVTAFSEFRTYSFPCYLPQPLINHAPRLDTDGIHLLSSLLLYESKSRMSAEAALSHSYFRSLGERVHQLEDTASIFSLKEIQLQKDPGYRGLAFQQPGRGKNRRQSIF
Procedure, shortened: (§1)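 Lysates from probe-sonicated cells in PBS (5 mg/ml proteome) were exposed to compound for 1 hr at 25° C, then labelled with desthiobiotin iodoacetamide probe (10 mM stock) for 1 hr at 25° C. Probe-tagged peptides were streptavidin-enriched after trypsin digestion.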

[2] = molecular target: T2, TAP2 Antigen peptide transporter 2 (Homo sapiens, UniProt Q03519); assay: Cysteine liganding, probe competition; assay type: binding; details: for Liganded: TAP2 Res# 641, uniprot Q03519
T2 construct: Cells were resuspended in cold PBS on ice and sonicated with a probe sonicator to achieve lysis; endogenous in cells
T2 sequence (Q03519 1-686): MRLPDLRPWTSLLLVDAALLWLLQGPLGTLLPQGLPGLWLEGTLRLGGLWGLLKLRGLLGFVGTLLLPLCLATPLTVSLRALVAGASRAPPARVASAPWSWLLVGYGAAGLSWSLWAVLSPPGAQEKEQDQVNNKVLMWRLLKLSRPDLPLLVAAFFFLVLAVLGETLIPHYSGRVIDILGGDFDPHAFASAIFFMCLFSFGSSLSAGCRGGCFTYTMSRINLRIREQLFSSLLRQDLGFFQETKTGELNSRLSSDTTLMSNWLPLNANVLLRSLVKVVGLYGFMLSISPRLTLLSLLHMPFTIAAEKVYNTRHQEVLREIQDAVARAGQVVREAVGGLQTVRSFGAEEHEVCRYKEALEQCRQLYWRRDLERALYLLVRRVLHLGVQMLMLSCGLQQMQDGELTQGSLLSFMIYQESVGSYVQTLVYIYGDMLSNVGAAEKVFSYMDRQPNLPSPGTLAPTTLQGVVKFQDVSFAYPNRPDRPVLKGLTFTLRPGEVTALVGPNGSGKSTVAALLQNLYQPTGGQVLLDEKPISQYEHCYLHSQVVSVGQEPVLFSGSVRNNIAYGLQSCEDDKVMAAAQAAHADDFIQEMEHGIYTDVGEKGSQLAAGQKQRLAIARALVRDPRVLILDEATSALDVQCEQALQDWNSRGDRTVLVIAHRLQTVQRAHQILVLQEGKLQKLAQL
T2 sequence (Q03518 1-748 partner): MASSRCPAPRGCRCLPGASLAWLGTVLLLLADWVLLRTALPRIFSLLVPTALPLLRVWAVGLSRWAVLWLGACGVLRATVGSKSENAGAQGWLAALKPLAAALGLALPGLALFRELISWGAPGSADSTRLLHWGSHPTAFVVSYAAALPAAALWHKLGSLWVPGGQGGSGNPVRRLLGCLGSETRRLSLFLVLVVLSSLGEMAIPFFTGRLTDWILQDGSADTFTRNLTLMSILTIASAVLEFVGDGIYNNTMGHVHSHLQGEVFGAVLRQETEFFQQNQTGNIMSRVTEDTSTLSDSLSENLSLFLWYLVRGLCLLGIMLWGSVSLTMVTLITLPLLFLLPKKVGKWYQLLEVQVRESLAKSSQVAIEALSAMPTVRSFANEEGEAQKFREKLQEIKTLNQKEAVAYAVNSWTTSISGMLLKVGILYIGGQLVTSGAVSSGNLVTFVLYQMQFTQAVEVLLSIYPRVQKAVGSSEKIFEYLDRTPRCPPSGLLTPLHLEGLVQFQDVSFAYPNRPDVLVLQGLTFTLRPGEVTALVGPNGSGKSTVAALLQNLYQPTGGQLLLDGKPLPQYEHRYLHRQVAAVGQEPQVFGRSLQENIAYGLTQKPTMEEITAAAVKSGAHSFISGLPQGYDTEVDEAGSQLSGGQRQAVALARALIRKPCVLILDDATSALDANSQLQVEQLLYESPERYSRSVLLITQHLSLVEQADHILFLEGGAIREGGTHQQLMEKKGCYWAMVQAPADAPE
Procedure, shortened: as §1

Structure (SMILES) | Liganded [1] | Liganded [2] | 100 Max ([1]; uniprot Q07002) | 100 ave ([1]; uniprot Q07002) | 500 Max ([1]; uniprot Q07002) | 500 ave ([1]; uniprot Q07002) | 100 ave ([2]; uniprot Q03519) | 500 Max ([2]; uniprot Q03519) | 500 ave ([2]; uniprot Q03519) | 100 Max ([2]; uniprot Q03519, in % (unit assumed))
COc1ccc2c(c1)CCCN2C(=O)CCl [KB02] | YES | YES | – | – | – | – | – | – | – | –
O=C(CCl)Nc1cc(C(F)(F)F)cc(C(F)(F)F)c1 [KBO3] | YES | YES | 50.67 | 28.2075 | 80.44 | 79.225 | 70.57 | 94.0932 | 94.0932 | 71.9622
